# Source: patent publication US20060029989A1, “Targeting cells having Mad2 mutation for treatment and/or prevention of disease” (Regents of the University of California, priority 1999, published 2006)
# Legend:
# glioblastoma cells [1] = experiment: tumorigenicity of treated tumor cells in athymic mice; type: in vivo
# [2] = system: established yeast models (mutated MAD1/MAD2 and secondary genes); experiment: yeast-based drug screening assay (control system showing lethality versus test system with drug added); type: cell-based; settings: among tested compounds; pharmaceutically acceptable concentrations
# Protocol: In essence assay consists of control system in which one observes lethality and test system to which a drug is added and its effect is evaluated based on difference between control and test system. If drug enhances lethality or reverses it this drug is considered as a candidate drug that may be specific in the biochemical pathway controlled by primary and secondary genes.
# glioblastoma cells [3] = experiment: growth, replication and phenotype of glioblastoma cells under continuous drug treatment; type: cell-based, human
smiles,measurement,setting,value
"O=C([O-])CCCc1ccccc1.[Na+] [phenylbutyrate, 4-phenylbutyrtic acid sodium salt]",tumorigenicity in athymic mice,glioblastoma cells [1],reduced tumorigenicity
same,activity in yeast-based screening,[2],active at pharmaceutically acceptable concentrations
same,inhibition of growth,"glioblastoma cells [3]; 4 mM, after 4-6 days of continuous treatment, glioblastoma cells",approximately 50%
same,tumor cell replication,"glioblastoma cells [3]; glioblastoma cells, phenylacetate metabolites compared",inhibited tumor cell replication
same,"cell maturation and phenotype (cytoskeletal intermediate filaments, anchorage-independence)",glioblastoma cells [3]; tumor cells,promoted cell maturation and reversion to a nonmalignant phenotype
